Entries after “also recorded” stand apart in the source; their conditions may differ. Where two headings read alike, the source gives them in different places. One block for each compound: values may come before it.
Assays:
[1] = molecular target: T1, PDE peak A (PDE5) from SW-480 cells (Homo sapiens, UniProt O76074); experiment: cGMP hydrolysis by PDE peak A; type: biochemical
T1 construct: SW-480 cells are collected and homogenized; The homogenate is centrifuged, and the supernatant is loaded onto a DEAE-Trisacryl M column; endogenous in cells; host or cells: SW-480 human colon carcinoma cells, DEAE-Trisacryl M fraction peak A

[2] = test system: PDE peak B (novel cGMP-specific PDE) from SW-480 cells; experiment: cGMP hydrolysis by PDE peak B; type: biochemical, human; conditions: for IC50: cGMP hydrolysis, 0.25 μM 3H-cGMP substrate; for Km: peak B
[3] = test system: HT-29 cells; experiment: Apoptosis and necrosis by morphology (acridine orange/ethidium bromide); type: cell-based; conditions: for % Apoptosis / % Necrosis: HT-29 cells treated for 6 days
Experimental: In one type of apoptosis assay, suspected neoplastic cells are removed from a patient. The cells are then grown in culture in the presence or absence of a cGMP-specific PDE inhibitor. Apoptotic cells are measured by combining both the attached and “floating” compartments of the cultures. The protocol for treating tumor cell cultures with PDE inhibitors and related compounds to obtain a significant amount of apoptosis has been described in the literature. (See, Piazza, G. A., et al., Cancer Research, 55:3110-16, 1995, which is incorporated herein by reference). The novel features of this assay include collecting both floating and attached cells, identification of the optimal treatment times and dose range for observing apoptosis, and identification of optimal cell culture conditions.
Following treatment of neoplastic and normal cells with a test compound, cultures can be assayed for apoptosis and necrosis by fluorescent microscopy following labeling with acridine orange and ethidium bromide. The method for measuring apoptotic cell number has previously been described by Duke & Cohen, “Morphological And Biochemical Assays Of Apoptosis,” Current Protocols In Immunology, Coligan et al., eds. 3.17.1-3.17.16 (1992, which is incorporated herein by reference).
For example, floating and attached cells are collected, and aliquots of cells are centrifuged. The cell pellet is then resuspended in media and a dye mixture containing acridine orange and ethidium bromide. The mixture is then examined microscopically for morphological features of apoptosis.
Apoptotic and necrotic cell death was determined as previously described (Duke and Cohen, In: Current Protocols in Immunology, 3.17.1-3.17.16, New York, John Wiley and Sons, 1992). […] All data were collected from the same experiment.
The diagnostic method of this invention is used to determine whether a particular neoplasia is sensitive to treatment with a cGMP-specific PDE inhibitor. The apoptosis inducing activity for a series of phosphodiesterase inhibitors, specific for different PDEs, was determined. HT-29 cells were treated for 6 days with various inhibitors of phosphodiesterase. Apoptosis and necrosis were determined morphologically after acridine orange and ethidium bromide labeling in accordance with the assay described, supra.

[4] = test system: neoplastic cells; experiment: Apoptosis induction and growth inhibition in neoplastic cells (words only); type: cell-based
[5] = test system: colonic polyps of familial polyposis patients; experiment: Apoptosis clinical study, apoptotic labeling index (ALI) in biopsies; type: in vivo, human
Experimental: Increases in apoptosis are indicative that the neoplasia in question is sensitive to treatment with a cGMP-specific PDE inhibitor, such as sulindac sulfone (aposulind). A human in vivo aposulind-induced selective induction of apoptosis in colonic polyps is described below. Six familial polyposis patients per group were administered one of three doses of aposulind (200 mg, 400 mg which was later lowered to 200 mg for most patients in the group, or 300 mg) twice daily (BID).
Biopsies are taken from patients and used to investigate possible cellular mechanisms of apoptosis. Biopsy samples are placed in transfer media (500 ml RPMI1640 containing 50 ml fetal calf serum, 5×10^8 units penicillin G, and 5×10^6 μg streptomycin) and kept on ice for less than 1 hour until transfer to the pathology department. Upon receipt in the pathology department, samples are removed from the transfer media and oriented mucosa up, serosa down on filter paper, placed between biopsy sponges in a tissue cassette, and fixed in 10% neutral buffered formalin for 24 hours. Samples are then transferred to 70% ethanol and embedded in paraffin. Samples are oriented perpendicularly to the tissue cassette during final orientation in paraffin for longitudinal crypt exposure and easy visualization of mucosa and the relation to the basement membrane.
Four micron sections of tissue were cut, mounted, deparaffinized, rehydrated in graded alcohol, and treated with pepsin (5 mg/ml) to digest protein in the tissue. Sections were washed and treated with 2% hydrogen peroxide (H2O2) in PBS to quench endogenous peroxidase and washed again. Tissue samples were then circled with a PAP pen (Research Products Int., 800-323-9814) to produce a hydrophobic barrier to concentrate reagents on the sample. If a DNase positive control is desired, the sample is treated with DNase for 10 minutes, equilibrated in transferase buffer, and treated using 100 enzyme units/ml terminal transferase enzyme (TdT) at 37° C. for 60 minutes. Samples are washed and anti-digoxigenin-peroxidase is applied. Each sample is then covered with a coverslip and left in a humid box at room temperature for 30 minutes. After washing three times peroxidase is developed using DAB for nine minutes. After sufficient color development, the slides are washed and counterstained with hemotoxylin and eosin.
Apoptotic and nonapoptotic cells are counted on the basis of staining and morphology. An apoptotic labeling index (ALI) is calculated by dividing the total number of apoptotic cells counted by the total number of epithelial cells counted and expressing the quotient as a percentage.

[6] = molecular target: PDE5 cGMP-binding sites (Bos taurus, UniProt Q28156); conditions: bovine PDE5; read-out: Kd of high affinity binding site; cited from earlier work
[7] = molecular target: T2, GST-PDE5 binding domain fusion protein (Homo sapiens, UniProt O76074); experiment: Cyclic GMP binding assay, 3H-cGMP saturation binding; conditions: read-out: Km for cGMP; 3H-cGMP saturation binding curve at 25° C.
T2 construct: made in house; host or cells: E. coli BL21
Experimental: The assay was performed in a total volume of 100 μL containing 5 mM sodium phosphate buffer (pH 6.8), 1 mM EDTA and 0.25 mg/ml BSA and H^3-cGMP (5.8 Ci/mmol, NEN). The purified soluble GST-PDE5 binding domain fusion protein (5 to 50 μg/assay) was incubated at […] for one hour and then transferred to a Brandel MB-24 Cell Harvester with GF/B as the filter membrane. Next the fusion protein was washed twice with 10 mL of cold 5 mM potassium buffer, pH 6.8. The membranes were cut out and transferred to scintillation vials, then 1 ml of H2O and 6 ml of Ready Safe liquid scintillation cocktail as added and the samples were counted on a Beckman LS 6500 scintillation counter. A ^3H-cGMP saturation binding curve at 25° C. was generated.

SMILES: CCCCCC[C@@H]([C@@H](C)O)n1cnc2c(N)ncnc21 (racemic) [EHNA]
- IC50 ([1]; cGMP hydrolysis, 0.25 μM 3H-cGMP substrate): > 100 µM
- IC50 [2]: 3.7 µM

SMILES: COc1nc2c([nH]1)c(=O)n(C)c(=O)n2CC(C)C [8-methoxy-IBMX]
- % Apoptosis [3]: 2%
- % Necrosis [3]: 1%

SMILES: O=C([O-])C1CCN(c2nc(NCc3ccc4c(c3)OCO4)c3cc(Cl)ccc3n2)CC1.[Na+] [Compound E4021]
- Sensitivity of the new cGMP-PDE to inhibition (in words) [2]: relatively insensitive
- Apoptosis induction in neoplastic cells (in words) [4]: none of the three; also recorded: do not have significant apoptosis-inducing or growth-inhibiting properties
- Growth inhibition of neoplastic cells (in words) [4]: none of the three; also recorded: do not have significant apoptosis-inducing or growth-inhibiting properties

- Mode of inhibition of cGMP hydrolysis, peak A [1]: competitively inhibit
- Ratio (IC50 PeakA/Peak B) ([1]; cGMP hydrolysis): 1.0
- IC50 [2]: 0.37 µM
SMILES: COc1cc(/C=C2/C(C)=C(CC(=O)NCc3ccccc3)c3cc(F)ccc32)cc(OC)c1OC [Compound E, [(Z)-5-fluoro-2-methyl-1-(3,4,5-trimethoxybenzylidene)-3-indenylacetamide, N-benzyl]]
- Mode of inhibition of cGMP hydrolysis, peak B [2]: competitively inhibit
- Apoptosis induction in neoplastic cells (in words) [4]: induce apoptosis in neoplastic cells
- Growth inhibition of neoplastic cells (in words) [4]: precisely the opposite

SMILES: CC1=C(CC(=O)O)c2cc(F)ccc2/C1=C\c1ccc(S(C)(=O)=O)cc1 [Exisulind, (Z)-5-fluoro-2-methyl-1-[[4-(methylsulfonyl)phenyl]methylene]indene-3-yl acetic acid]
- Apoptotic and necrotic cell death (FIG. 1, in words) ([3]; HT-29 cells treated for six days): capable of causing apoptotic cell death without inducing neoplastic cell necrosis
- Change in ALI after treatment ([5]; 200 mg BID group): did not demonstrate any elevation
- Mean Polyp ALI ([5]; 200 mg BID, Month 1): 4.05%
- Mean Polyp ALI ([5]; 200 mg BID, Month 4): 4.52%
- Mean Polyp ALI ([5]; 200 mg BID, Month 6): 5.90%
- Mean Polyp ALI ([5]; 300 mg BID, Month 1): 4.90%
- Mean Polyp ALI ([5]; 300 mg BID, Month 6): 15.63%
- Change in ALI of polyps after treatment ([5]; 300 mg BID, six months): two fold increase
- Change in ALI of dysplastic tissue after treatment ([5]; 400/200 mg BID group while uniformly dosed at 400 mg BID): two-fold elevation
- Mean Polyp ALI ([5]; 400/200 mg BID, Month 1): 10.98%
- Mean Polyp ALI ([5]; 400/200 mg BID, Month 4): 5.51%
- Mean Polyp ALI ([5]; 400/200 mg BID, Month 6): 5.10%
- Polyp size and number ([5]; familial polyposis patients): diminution of polyp size and decrease in polyp number
- Change in normal mucosa ALI versus baseline ALI ([5]; normal mucosa, any treatment group, over time): no significant change
- Apoptosis levels in regressing polyps ([5]; over six months of treatment): doubled

SMILES: CC(C)Cn1c(=O)n(C)c(=O)c2[nH]cnc21 [IBMX]
- % Apoptosis [3]: 4%
- % Necrosis [3]: 13%

- Ratio (IC50 PeakA/Peak B) ([1]; cGMP hydrolysis): <0.31
- IC50 [2]: > 100 µM
SMILES: CC1(C)C(=O)Nc2ccc(C3=NNC(=O)CC3)cc21 [Indolidan]
- Sensitivity of the new cGMP-PDE to inhibition (in words) [2]: relatively insensitive

SMILES: Clc1cccc(Nc2nnc(-c3ccccc3)c3ccccc23)c1 [MY5445]
- % Apoptosis [3]: 80%
- % Necrosis [3]: 5%

SMILES: CCCCOc1cc(CC2CNC(=O)N2)ccc1OC (stereo not drawn) [RO-20-1724]
- % Apoptosis [3]: 11%
- % Necrosis [3]: 2%

SMILES: COc1ccc(C2CNC(=O)C2)cc1OC1CCCC1 (stereo not drawn) [Rolipram]
- Sensitivity of the new cGMP-PDE to inhibition (in words) [2]: relatively insensitive
- IC50 [2]: > 100 µM

SMILES: CCCc1nn(C)c2c(=O)[nH]c(-c3cc(S(=O)(=O)N4CCN(C)CC4)ccc3OCC)nc12 [Sildenafil]
- Inhibition of peak A activity (in words) [1]: inhibited activity of peak A
- Apoptosis induction in neoplastic cells (in words) [4]: none of the three; also recorded: do not have significant apoptosis-inducing or growth-inhibiting properties
- Growth inhibition of neoplastic cells (in words) [4]: none of the three; also recorded: do not have significant apoptosis-inducing or growth-inhibiting properties

- IC50 [2]: > 100 µM
SMILES: CCOC(=O)C1=C[C@]2(CC)CCCN3CCc4c(n1c1ccccc41)[C@@H]32 [Vinpocetine]
- Sensitivity of the new cGMP-PDE to inhibition (in words) [2]: relatively insensitive

- Mode of inhibition of cGMP hydrolysis, peak A [1]: competitive inhibition
SMILES: CCCOc1ccccc1-c1nc2nn[nH]c2c(=O)[nH]1 [Zaprinast]
- Apoptosis induction in neoplastic cells (in words) [4]: do not have significant apoptosis-inducing or growth-inhibiting properties
- Growth inhibition of neoplastic cells (in words) [4]: do not have significant apoptosis-inducing or growth-inhibiting properties
- Apoptosis induction in neoplastic cells (in words) ([4]; listed as zaprinast): none of the three
- Growth inhibition of neoplastic cells (in words) ([4]; listed as zaprinast): none of the three

- Km [7]: 0.41 ± 0.08 µM
- Km ([1]; read-out: Km of the enzyme for cGMP, peak A): 1.07 µM
SMILES: Nc1nc2c(ncn2[C@@H]2O[C@@H]3COP(=O)(O)O[C@H]3[C@H]2O)c(=O)[nH]1 [cGMP]
- Kd [6]: 0.5 µM
- Km ([2]; decreasing slope of Eadie-Hofstee plot, absence of cAMP, read-out: apparent Km): 8.4 µM
- Km ([2]; increasing slope of Eadie-Hofstee plot, called submicromolar affinity, read-out: Km): < 1 µM

— patent publication US20030044861A1, “Method for diagnosing neoplasia” (priority 1998, published 2003)
